From ChEMBL document CHEMBL4387730, “Discovery of a new autophagy inducer for A549 lung cancer cells” (Bioorg Med Chem, 2019) come the findings set out here.

The test system of series [1] is A549. The series can be described thus: Cytotoxicity against human A549 cells assessed as reduction in viability at 0.1 to 20 uM after 24 hrs by SRB assay. In kind it is functional, cell-based.
The test system of series [2] is A549. Description: Cytotoxicity against human A549 cells assessed as reduction in viability at 0.1 to 20 uM after 48 hrs by SRB assay. In kind it is functional, cell-based. On the technique in general: In SRB staining, fixed cells bind dye roughly in proportion to their protein.
Series [3] has as its system A549. The series can be described thus: Cytotoxicity against human A549 cells assessed as reduction in viability after 48 hrs by SRB assay. In kind it is functional, cell-based. The conditions noted are these: A549, 48 h.
The test system of series [4] is A549. The series can be described thus: Induction of morphological changes in human A549 cells assessed as apoptotic body formation at 0.1 to 20 uM after 3 to 24 hrs by acridine orange staining based inverted phase contrast microscopic method. In kind it is functional, cell-based.
Series [5] has as its system A549. Description: Induction of necrosis in human A549 cells assessed as increase in LDH activity at 0.1 to 5 uM after 24 hrs by absorption spectrophotometric method. The conditions noted are these: a549, 24 h. In kind it is cell-based.
In series [6] the test system is A549. Description: Induction of necrosis in human A549 cells assessed as increase in LDH activity at 10 uM after 24 hrs by absorption spectrophotometric method. In kind it is cell-based. The conditions noted are these: a549, 24 h.
Series [7] relates to A549. The series can be described thus: Induction of apoptosis in human A549 cells assessed as increase in Cleaved-PARP expression at 1 to 10 uM after 24 hrs by Western blot analysis. In kind it is functional, cell-based.
The test system of series [8] is A549. Description: Induction of autophagy in human A549 cells assessed as accumulation of acidic vesicles at 0.05 to 20 uM after 24 hrs by acridine orange staining based fluorescence microscopic method. In kind it is functional, cell-based.
Series [9] relates to A549. Description: Induction of autophagy in human A549 cells assessed as increase in […] expression at 1 to 10 uM after 24 hrs by Western blot analysis. In kind it is functional, cell-based.
The test system of series [10] is A549. The series can be described thus: Induction of autophagy in human A549 cells assessed decrease in p62 expression at 1 to 10 uM after 24 hrs by Western blot analysis. In kind it is functional, cell-based. For orientation: In western blotting, separated proteins are transferred to a membrane and probed.
In the next series the test system is U-87 MG. Description: Induction of autophagy in human U87 cells transfected with GFP-fused LC3-II assessed as punctiform pattern of LC3-II at 1 to 10 uM after 24 hrs by laser scanning confocal microscopic method. In kind it is functional, cell-based. The conditions noted are these: U-87MG ATCC.
Series [11] deals with A549. Description: Induction of autophagic flux in human A549 cells assessed as increase in LC3-II protein level at 10 uM after 24 hrs in presence of V-ATPase inhibitor bafilomycin-A1 by Western blot analysis. In kind it is functional, cell-based.
For the next series, the target named is mTORC1 (Homo sapiens) (UniProt P42345+Q8N122+Q9BVC4). The series can be described thus: Inhibition of mTORC1 in human A549 cells assessed as reduction in p70S6K phosphorylation at 10 uM after 3 to 24 hrs by Western blot analysis. In kind it is cell-based.
Series [12] concerns A549. The series can be described thus: Inhibition of autophagy flux in human A549 assessed as increase in p62 expression at 1 to 10 uM after 24 hrs by Western blot analysis. In kind it is functional, cell-based.

Calls of active or inactive are those of the source. No cut-off for these calls is given here.

Sequence of mTORC1 (Homo sapiens) (Q8N122 whole entry, looked up, other chains not shown): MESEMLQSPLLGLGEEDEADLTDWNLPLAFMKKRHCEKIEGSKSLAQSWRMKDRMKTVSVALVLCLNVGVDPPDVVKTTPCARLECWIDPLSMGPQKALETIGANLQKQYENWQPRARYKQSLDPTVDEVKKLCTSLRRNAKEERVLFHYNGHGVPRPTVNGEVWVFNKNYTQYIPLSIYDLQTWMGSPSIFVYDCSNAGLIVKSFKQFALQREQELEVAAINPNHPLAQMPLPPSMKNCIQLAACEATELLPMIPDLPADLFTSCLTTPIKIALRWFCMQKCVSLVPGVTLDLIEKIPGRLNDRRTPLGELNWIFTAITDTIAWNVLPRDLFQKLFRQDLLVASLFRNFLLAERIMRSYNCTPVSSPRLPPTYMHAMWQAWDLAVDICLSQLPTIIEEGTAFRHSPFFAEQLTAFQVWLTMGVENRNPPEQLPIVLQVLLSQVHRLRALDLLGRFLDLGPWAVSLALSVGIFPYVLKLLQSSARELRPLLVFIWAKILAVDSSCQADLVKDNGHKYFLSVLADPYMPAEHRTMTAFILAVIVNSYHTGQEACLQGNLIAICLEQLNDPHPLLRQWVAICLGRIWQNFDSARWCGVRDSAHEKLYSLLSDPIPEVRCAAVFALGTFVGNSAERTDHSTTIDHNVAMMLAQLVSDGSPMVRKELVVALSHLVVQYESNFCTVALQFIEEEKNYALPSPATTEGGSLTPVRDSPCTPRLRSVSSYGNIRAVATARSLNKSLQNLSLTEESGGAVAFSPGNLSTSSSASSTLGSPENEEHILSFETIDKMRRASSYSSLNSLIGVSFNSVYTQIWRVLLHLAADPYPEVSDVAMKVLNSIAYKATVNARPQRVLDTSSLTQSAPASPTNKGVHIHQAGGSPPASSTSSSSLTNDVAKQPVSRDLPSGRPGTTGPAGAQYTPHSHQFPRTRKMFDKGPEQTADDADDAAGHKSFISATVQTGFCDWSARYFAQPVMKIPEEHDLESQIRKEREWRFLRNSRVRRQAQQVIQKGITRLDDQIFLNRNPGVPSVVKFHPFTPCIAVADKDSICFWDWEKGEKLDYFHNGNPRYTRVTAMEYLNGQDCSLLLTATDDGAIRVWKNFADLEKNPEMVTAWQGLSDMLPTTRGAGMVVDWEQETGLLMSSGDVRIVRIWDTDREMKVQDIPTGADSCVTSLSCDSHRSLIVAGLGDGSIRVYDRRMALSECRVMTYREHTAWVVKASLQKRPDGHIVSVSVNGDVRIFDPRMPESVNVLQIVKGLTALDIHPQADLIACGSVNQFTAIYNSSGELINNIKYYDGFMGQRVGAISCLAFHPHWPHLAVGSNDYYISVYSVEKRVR
Sequence of mTORC1 (Homo sapiens) (Q9BVC4 whole entry, looked up, other chains not shown): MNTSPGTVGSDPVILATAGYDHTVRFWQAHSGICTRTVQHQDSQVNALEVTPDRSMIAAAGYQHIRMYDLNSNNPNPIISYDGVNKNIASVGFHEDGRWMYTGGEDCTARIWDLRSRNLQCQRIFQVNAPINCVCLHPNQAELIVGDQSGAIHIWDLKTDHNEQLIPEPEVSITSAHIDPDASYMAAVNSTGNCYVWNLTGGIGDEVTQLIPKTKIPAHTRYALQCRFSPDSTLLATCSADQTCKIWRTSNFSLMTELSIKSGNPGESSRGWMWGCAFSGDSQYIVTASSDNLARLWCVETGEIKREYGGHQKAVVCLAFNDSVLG

For `Cc1cc[n+](CCCN2c3ccccc3S(=O)(=O)c3cc(C(=O)O)ccc32)cc1`, the outcome in the series with A549 [1] and in the series on A549 [2] was inactive.
For `O=Cc1ccc2c(c1)c1ccccc1n2CCCN1CCNCC1`, the outcome in the series on A549 [1] and in the series with A549 [2] was inactive.
Regarding `O=C(O)c1ccc(N2C(=O)c3cccc4cccc(c34)C2=O)cc1`, the outcome in the series on A549 [1] and in the series with A549 [2] was inactive.
As to `CCN(CC)c1ccc2ccc(=O)oc2c1`, the result in the series on A549 [1] and in the series on A549 [2] was inactive.
Consider `C[N+]1=C(/C=C/c2ccc(N3CCNCC3)cc2)C(C)(C)c2ccccc21`, for which the result with A549 [1] and in the series on A549 [2] was Active. Also, the IC50 in the series with A549 [3] was 13.6 µM.
`CC1=[N+](C)c2ccccc2C1(C)C`: the result in the series with A549 [1] and in the series on A549 [2] was inactive.
`C[N+]1=C(/C=C/c2ccc(N)cc2)C(C)(C)c2ccccc21`: the result in the series with A549 [1] and in the series on A549 [2] was Active. The IC50 with A549 [3] was found to be 3.9 µM.
With `CCN(CC)c1ccc2cc(-c3ccc(C)cc3)c(=O)oc2c1`, the outcome in the series on A549 [1] and in the series on A549 [2] was inactive.
Take `CCN(CC)C(=O)c1ccc(-c2oc3ccccc3c(=O)c2O)cc1`: the result in the series on A549 [1] and in the series with A549 [2] was inactive.
For the molecule `C[N+]1=C(/C=C/c2ccc(N3CCCCC3)cc2)C(C)(C)c2ccccc21.[I-]`, the result in the series on A549 [1], with A549 [2], in the series with A549 [4], in the series on A549 [7], in the series with A549 [8] and in the series on A549 [9] was Active. Moreover, the outcome with A549 [10] and in the series with A549 [11] was Active. Further, the IC50 in the series with A549 [3] is 1.1 µM. The Activity entry was “Non-Toxic” with A549 [5], “Non-Toxic” in the series with A549 [6] and “Dose-dependent effect” with U-87 MG. The inhibition result on mTORC1 (Homo sapiens) was “Active”.
Regarding `O=C1OC(=O)c2ccc(N3CCCC3)c3cccc1c23`, the outcome in the series on A549 [1] and in the series with A549 [2] was inactive.
Regarding `O=Cc1ccc2c(c1)c1ccccc1n2CCCCl`, the result in the series on A549 [1] and with A549 [2] was inactive.
As to `O=C(O)c1ccc(-c2oc3ccccc3c(=O)c2O)cc1`, the result in the series with A549 [1] and in the series on A549 [2] was inactive.
`O=C(O)c1ccc2c(c1)S(=O)(=O)c1ccccc1N2CCCCl`: the result in the series on A549 [1] and in the series with A549 [2] was inactive.
In the case of `O=c1[nH]cc(F)c(=O)[nH]1` [FLUOROURACIL], the result with A549 [1] and in the series on A549 [2] was Active. In addition, in the series with A549 [3], the IC50 amounted to 7.1 µM.
For `CCN(CC)c1ccc2cc(-c3ccc(N)cc3)c(=O)oc2c1`, the outcome in the series with A549 [1] and in the series with A549 [2] was inactive.
For the molecule `CC1(C)CC(/C=C/c2ccc(N3CCNCC3)cc2)=CC(=C(C#N)C#N)C1`, the result in the series on A549 [1], in the series with A549 [2], in the series with A549 [4], in the series with A549 [7], in the series with A549 [8] and with A549 [9] was Active. The IC50 with A549 [3] came out at 7.1 µM. Also, the Activity entry in the series with A549 [5] is “Non-Toxic”; in the series on A549 [6], “Toxic”. In the series with A549 [12], the inhibition entry is “Active”.

In general, IC50 refers to the concentration needed to halve the response being measured.
